Measured values taken from US9963445B2, “Chemical compounds” (SYNGENTA PARTICIPATIONS AG, priority 2013, dated 2018).

tested on: Abutilon theophrasti; assay: Pre-emergence herbicidal activity, glasshouse pot test; type: in vivo; details: pre-emergence spray, rate 1000 g/ha, evaluated after 13 days, scale 0-5
In short: (§1)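 Damage score 0–5 (5 = total damage) read 13 d after spraying. Pots sown, sprayed pre-emergence at day 1 with aqueous spray from acetone/water 50:50 + 0.5% Tween 20 formulation; glasshouse 24/16 °C, 14 h light, 65% RH.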

Row | SMILES | ABUTH damage score, application pre-emergence
1 | COc1ccnc(N2C(=O)C(Cl)=C(C)C2O)c1 (stereo not drawn) [AF44] | 0
2 | CC1=C(Cl)C(=O)N(c2cc(C)c([N+](=O)[O-])cn2)C1O (stereo not drawn) [AF48] | 0
3 | CC1=C(Cl)C(=O)N(c2cc(C#N)ccn2)C1O (stereo not drawn) [AF50] | 0
4 | CC1=C(Cl)C(=O)N(c2cc([S+](C)[O-])ccn2)C1O (stereo not drawn) [AF51] | 0
5 | CC1=C(Cl)C(=O)N(c2ccc([S+](C)[O-])cn2)C1O (stereo not drawn) [AF53] | 0
6 | CC1=C(Cl)C(=O)N(c2ccc(S(C)(=O)=O)cn2)C1O (stereo not drawn) [AF54] | 0
7 | COc1ccc(N2C(=O)C(Cl)=C(C)C2O)nc1 (stereo not drawn) [AF56] | 2

tested on: Alopecurus myosuroides; assay: as above; type: in vivo; details: pre-emergence spray, rate 1000 g/ha, evaluated after 13 days, scale 0-5
In short: as §1

Row | SMILES | ALOMY damage score, application pre-emergence
8 | COc1ccnc(N2C(=O)C(Cl)=C(C)C2O)c1 (stereo not drawn) [AF44] | 0
9 | CC1=C(Cl)C(=O)N(c2cc(C)c([N+](=O)[O-])cn2)C1O (stereo not drawn) [AF48] | 1
10 | CC1=C(Cl)C(=O)N(c2cc(C#N)ccn2)C1O (stereo not drawn) [AF50] | 2
11 | CC1=C(Cl)C(=O)N(c2cc([S+](C)[O-])ccn2)C1O (stereo not drawn) [AF51] | 0
12 | CC1=C(Cl)C(=O)N(c2ccc([S+](C)[O-])cn2)C1O (stereo not drawn) [AF53] | 2
13 | CC1=C(Cl)C(=O)N(c2ccc(S(C)(=O)=O)cn2)C1O (stereo not drawn) [AF54] | 0
14 | COc1ccc(N2C(=O)C(Cl)=C(C)C2O)nc1 (stereo not drawn) [AF56] | 0

tested on: Amaranthus retroflexus; assay: as above; type: in vivo; details: pre-emergence spray, rate 1000 g/ha, evaluated after 13 days, scale 0-5
In short: as §1

Row | SMILES | AMARE damage score, application pre-emergence
15 | COc1ccnc(N2C(=O)C(Cl)=C(C)C2O)c1 (stereo not drawn) [AF44] | 0
16 | CC1=C(Cl)C(=O)N(c2cc(C)c([N+](=O)[O-])cn2)C1O (stereo not drawn) [AF48] | 0
17 | CC1=C(Cl)C(=O)N(c2cc(C#N)ccn2)C1O (stereo not drawn) [AF50] | 0
18 | CC1=C(Cl)C(=O)N(c2cc([S+](C)[O-])ccn2)C1O (stereo not drawn) [AF51] | 0
19 | CC1=C(Cl)C(=O)N(c2ccc([S+](C)[O-])cn2)C1O (stereo not drawn) [AF53] | 1
20 | CC1=C(Cl)C(=O)N(c2ccc(S(C)(=O)=O)cn2)C1O (stereo not drawn) [AF54] | 0
21 | COc1ccc(N2C(=O)C(Cl)=C(C)C2O)nc1 (stereo not drawn) [AF56] | 1

tested on: Echinochloa crus-galli; assay: as above; type: in vivo; details: pre-emergence spray, rate 1000 g/ha, evaluated after 13 days, scale 0-5
In short: as §1

Row | SMILES | ECHCG damage score, application pre-emergence
22 | COc1ccnc(N2C(=O)C(Cl)=C(C)C2O)c1 (stereo not drawn) [AF44] | 0
23 | CC1=C(Cl)C(=O)N(c2cc(C)c([N+](=O)[O-])cn2)C1O (stereo not drawn) [AF48] | 1
24 | CC1=C(Cl)C(=O)N(c2cc(C#N)ccn2)C1O (stereo not drawn) [AF50] | 0
25 | CC1=C(Cl)C(=O)N(c2cc([S+](C)[O-])ccn2)C1O (stereo not drawn) [AF51] | 0
26 | CC1=C(Cl)C(=O)N(c2ccc([S+](C)[O-])cn2)C1O (stereo not drawn) [AF53] | 1
27 | CC1=C(Cl)C(=O)N(c2ccc(S(C)(=O)=O)cn2)C1O (stereo not drawn) [AF54] | 1
28 | COc1ccc(N2C(=O)C(Cl)=C(C)C2O)nc1 (stereo not drawn) [AF56] | 0

tested on: Setaria faberi; assay: as above; type: in vivo; details: pre-emergence spray, rate 1000 g/ha, evaluated after 13 days, scale 0-5
In short: as §1

Row | SMILES | SETFA damage score, application pre-emergence
29 | COc1ccnc(N2C(=O)C(Cl)=C(C)C2O)c1 (stereo not drawn) [AF44] | 0
30 | CC1=C(Cl)C(=O)N(c2cc(C)c([N+](=O)[O-])cn2)C1O (stereo not drawn) [AF48] | 0
31 | CC1=C(Cl)C(=O)N(c2cc(C#N)ccn2)C1O (stereo not drawn) [AF50] | 1
32 | CC1=C(Cl)C(=O)N(c2cc([S+](C)[O-])ccn2)C1O (stereo not drawn) [AF51] | 0
33 | CC1=C(Cl)C(=O)N(c2ccc([S+](C)[O-])cn2)C1O (stereo not drawn) [AF53] | 0
34 | CC1=C(Cl)C(=O)N(c2ccc(S(C)(=O)=O)cn2)C1O (stereo not drawn) [AF54] | 0
35 | COc1ccc(N2C(=O)C(Cl)=C(C)C2O)nc1 (stereo not drawn) [AF56] | 0

tested on: zea mays; assay: as above; type: in vivo; details: pre-emergence spray, rate 1000 g/ha, evaluated after 13 days, scale 0-5
In short: as §1

Row | SMILES | ZEAMX damage score, application pre-emergence
36 | COc1ccnc(N2C(=O)C(Cl)=C(C)C2O)c1 (stereo not drawn) [AF44] | 0
37 | CC1=C(Cl)C(=O)N(c2cc(C)c([N+](=O)[O-])cn2)C1O (stereo not drawn) [AF48] | 0
38 | CC1=C(Cl)C(=O)N(c2cc(C#N)ccn2)C1O (stereo not drawn) [AF50] | 0
39 | CC1=C(Cl)C(=O)N(c2cc([S+](C)[O-])ccn2)C1O (stereo not drawn) [AF51] | 0
40 | CC1=C(Cl)C(=O)N(c2ccc([S+](C)[O-])cn2)C1O (stereo not drawn) [AF53] | 1
41 | CC1=C(Cl)C(=O)N(c2ccc(S(C)(=O)=O)cn2)C1O (stereo not drawn) [AF54] | 2
42 | COc1ccc(N2C(=O)C(Cl)=C(C)C2O)nc1 (stereo not drawn) [AF56] | 0

tested on: Abutilon theophrasti; assay: Post-emergence herbicidal activity, glasshouse pot test; type: in vivo; parameters: key: 0 = no damage to plant, 5 = total damage to plant; details: Application post-emergence, rate 1000 g/ha, evaluated after 13 days
In short: (§2)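 After 8 days of glasshouse growth at 24/16 °C day/night, potted plants receive a foliar spray of the formulated compound (0.5% Tween 20 in acetone/water). They are then watered twice daily under unchanged conditions, and phytotoxicity is scored 0–5 after 13 days.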

Row | SMILES | ABUTH herbicidal damage score
43 | COc1ccnc(N2C(=O)C(Cl)=C(C)C2O)c1 (stereo not drawn) [AF44] | 3
44 | CC1=C(Cl)C(=O)N(c2cc(C)c([N+](=O)[O-])cn2)C1O (stereo not drawn) [AF48] | 0
45 | CC1=C(Cl)C(=O)N(c2cc(C#N)ccn2)C1O (stereo not drawn) [AF50] | 5
46 | CC1=C(Cl)C(=O)N(c2cc([S+](C)[O-])ccn2)C1O (stereo not drawn) [AF51] | 4
47 | CC1=C(Cl)C(=O)N(c2ccc([S+](C)[O-])cn2)C1O (stereo not drawn) [AF53] | 3
48 | CC1=C(Cl)C(=O)N(c2ccc(S(C)(=O)=O)cn2)C1O (stereo not drawn) [AF54] | 2
49 | COc1ccc(N2C(=O)C(Cl)=C(C)C2O)nc1 (stereo not drawn) [AF56] | 5

tested on: Alopecurus myosuroides; assay: as above; type: in vivo; parameters: key: 0 = no damage to plant, 5 = total damage to plant; details: Application post-emergence, rate 1000 g/ha, evaluated after 13 days
In short: as §2

Row | SMILES | ALOMY herbicidal damage score
50 | COc1ccnc(N2C(=O)C(Cl)=C(C)C2O)c1 (stereo not drawn) [AF44] | 3
51 | CC1=C(Cl)C(=O)N(c2cc(C)c([N+](=O)[O-])cn2)C1O (stereo not drawn) [AF48] | 2
52 | CC1=C(Cl)C(=O)N(c2cc(C#N)ccn2)C1O (stereo not drawn) [AF50] | 5
53 | CC1=C(Cl)C(=O)N(c2cc([S+](C)[O-])ccn2)C1O (stereo not drawn) [AF51] | 3
54 | CC1=C(Cl)C(=O)N(c2ccc([S+](C)[O-])cn2)C1O (stereo not drawn) [AF53] | 3
55 | CC1=C(Cl)C(=O)N(c2ccc(S(C)(=O)=O)cn2)C1O (stereo not drawn) [AF54] | 2
56 | COc1ccc(N2C(=O)C(Cl)=C(C)C2O)nc1 (stereo not drawn) [AF56] | 4

tested on: Amaranthus retroflexus; assay: as above; type: in vivo; parameters: key: 0 = no damage to plant, 5 = total damage to plant; details: Application post-emergence, rate 1000 g/ha, evaluated after 13 days
In short: as §2

Row | SMILES | AMARE herbicidal damage score
57 | COc1ccnc(N2C(=O)C(Cl)=C(C)C2O)c1 (stereo not drawn) [AF44] | 1
58 | CC1=C(Cl)C(=O)N(c2cc(C)c([N+](=O)[O-])cn2)C1O (stereo not drawn) [AF48] | 5
59 | CC1=C(Cl)C(=O)N(c2cc(C#N)ccn2)C1O (stereo not drawn) [AF50] | 1
60 | CC1=C(Cl)C(=O)N(c2cc([S+](C)[O-])ccn2)C1O (stereo not drawn) [AF51] | 0
61 | CC1=C(Cl)C(=O)N(c2ccc([S+](C)[O-])cn2)C1O (stereo not drawn) [AF53] | 1
62 | CC1=C(Cl)C(=O)N(c2ccc(S(C)(=O)=O)cn2)C1O (stereo not drawn) [AF54] | 0
63 | COc1ccc(N2C(=O)C(Cl)=C(C)C2O)nc1 (stereo not drawn) [AF56] | 3

tested on: Echinochloa crus-galli; assay: as above; type: in vivo; parameters: key: 0 = no damage to plant, 5 = total damage to plant; details: Application post-emergence, rate 1000 g/ha, evaluated after 13 days
In short: as §2

Row | SMILES | ECHCG herbicidal damage score
64 | COc1ccnc(N2C(=O)C(Cl)=C(C)C2O)c1 (stereo not drawn) [AF44] | 4
65 | CC1=C(Cl)C(=O)N(c2cc(C)c([N+](=O)[O-])cn2)C1O (stereo not drawn) [AF48] | 3
66 | CC1=C(Cl)C(=O)N(c2cc(C#N)ccn2)C1O (stereo not drawn) [AF50] | 5
67 | CC1=C(Cl)C(=O)N(c2cc([S+](C)[O-])ccn2)C1O (stereo not drawn) [AF51] | 3
68 | CC1=C(Cl)C(=O)N(c2ccc([S+](C)[O-])cn2)C1O (stereo not drawn) [AF53] | 3
69 | CC1=C(Cl)C(=O)N(c2ccc(S(C)(=O)=O)cn2)C1O (stereo not drawn) [AF54] | 3
70 | COc1ccc(N2C(=O)C(Cl)=C(C)C2O)nc1 (stereo not drawn) [AF56] | 4

tested on: Setaria faberi; assay: as above; type: in vivo; parameters: key: 0 = no damage to plant, 5 = total damage to plant; details: Application post-emergence, rate 1000 g/ha, evaluated after 13 days
In short: as §2

Row | SMILES | SETFA herbicidal damage score
71 | COc1ccnc(N2C(=O)C(Cl)=C(C)C2O)c1 (stereo not drawn) [AF44] | 1
72 | CC1=C(Cl)C(=O)N(c2cc(C)c([N+](=O)[O-])cn2)C1O (stereo not drawn) [AF48] | 3
73 | CC1=C(Cl)C(=O)N(c2cc(C#N)ccn2)C1O (stereo not drawn) [AF50] | 5
74 | CC1=C(Cl)C(=O)N(c2cc([S+](C)[O-])ccn2)C1O (stereo not drawn) [AF51] | 3
75 | CC1=C(Cl)C(=O)N(c2ccc([S+](C)[O-])cn2)C1O (stereo not drawn) [AF53] | 3
76 | CC1=C(Cl)C(=O)N(c2ccc(S(C)(=O)=O)cn2)C1O (stereo not drawn) [AF54] | 1
77 | COc1ccc(N2C(=O)C(Cl)=C(C)C2O)nc1 (stereo not drawn) [AF56] | 4

tested on: zea mays; assay: as above; type: in vivo; parameters: key: 0 = no damage to plant, 5 = total damage to plant; details: Application post-emergence, rate 1000 g/ha, evaluated after 13 days
In short: as §2

Row | SMILES | ZEAMX herbicidal damage score
78 | COc1ccnc(N2C(=O)C(Cl)=C(C)C2O)c1 (stereo not drawn) [AF44] | 2
79 | CC1=C(Cl)C(=O)N(c2cc(C)c([N+](=O)[O-])cn2)C1O (stereo not drawn) [AF48] | 0
80 | CC1=C(Cl)C(=O)N(c2cc(C#N)ccn2)C1O (stereo not drawn) [AF50] | 2
81 | CC1=C(Cl)C(=O)N(c2cc([S+](C)[O-])ccn2)C1O (stereo not drawn) [AF51] | 0
82 | CC1=C(Cl)C(=O)N(c2ccc([S+](C)[O-])cn2)C1O (stereo not drawn) [AF53] | 0
83 | CC1=C(Cl)C(=O)N(c2ccc(S(C)(=O)=O)cn2)C1O (stereo not drawn) [AF54] | 0
84 | COc1ccc(N2C(=O)C(Cl)=C(C)C2O)nc1 (stereo not drawn) [AF56] | 2
